Data from US20180094248A1, “Necroptosis Signaling as a Therapeutic Target for Alzheimer's Disease” (Arizona Board of Regents on behalf of Arizona State …, priority 2016, published 2018).

Key:
[1] = test system: primary cortical neurons from APP/PS1 mice; test: NeuN count of APP/PS1 primary cortical neurons treated with Nec-1S or vehicle; assay type: cell-based, mouse
Description: To probe for a direct link between necroptosis and neuronal loss in AD, we plated primary cortical neurons from APP/PS1 and wild type littermate mice. After seven days in vitro (DIV), neurons were treated with 10 μM of the necroptosis inhibitor 7-Cl-O-necrostatin (Nec15) or vehicle. Treatment was repeated at DIV 11. We then fixed neurons at DIV 11 and 15, and stained them for NeuN to count total number of neurons. […] To determine changes in necroptosis, we isolated proteins from neurons of the same four groups and measured the levels of total and phosphorylated MLKL by western blot.
Primary neuronal cultures—For the GFP experiments: Primary neurons were isolated from APP/PS1 and NonTg Po pups. The tissue was then dissociated in Neurobasal media (Thermo Fisher Scientific) and spun down for 3 minutes at 5,000 g at 4° C. The supernatant was discarded and the pellet was re-suspended in 1 ml of Neurobasal media supplemented with B27 (Thermo Fisher Scientific). […] Neurons were treated for a total of 15 days and the GFP fluorescence was measured every 4 days. […] All fluorescent measurements (excitation 488 nm, emission 509 nm) were performed using the Synergy HT multi-mode microplate reader with the Gen5 software (BioTek, Winooski, Vt.). The reader was pre-heated to 37° C. to maintain optimal conditions for the neurons during the measurements. […]

[2] = test system: phosphorylated MLKL; test: Western blot of total and phosphorylated MLKL in primary neurons (AAV-GFP experiment); assay type: cell-based, mouse
Description: At DIV 1, we infected primary cortical neurons isolated from APP/PS1 and wild type mice with an adeno-associated virus (AAV) expressing the green fluorescent protein (GFP) under the neuronal promotor CamKII. At DIV 7 and 11, neurons from the two genotypes were treated with 10 μM Nec1S or vehicle. We then measured GFP fluorescence in live cells as an indication of live neurons.
Western blot and ELISA: The proteins were run using reducing conditions in precast gels (Thermo Fisher Scientific) and transferred to nitrocellulose membranes (iBlot, Thermo Fisher Scientific). […] The blots were then washed with TBS-T, and imaged/quantified using a LICOR Odyssey CLx (LI-COR Biosciences) attached to a Dell computer (OptiPlex 7010) running Windows 7 and Image Studio (version 1.0.11, LI-COR Biosciences). […]
Primary neuronal cultures—For the GFP experiments: Primary neurons were isolated from APP/PS1 and NonTg Po pups. […] Neurons were treated for a total of 15 days and the GFP fluorescence was measured every 4 days. […] All fluorescent measurements (excitation 488 nm, emission 509 nm) were performed using the Synergy HT multi-mode microplate reader with the Gen5 software (BioTek, Winooski, Vt.). The reader was pre-heated to 37° C. to maintain optimal conditions for the neurons during the measurements. […]

CN1C(=O)NC(Cc2c[nH]c3c(Cl)cccc23)C1=O (stereo not shown) [Nec1S, 5-((7-chloro-1 H-indol-3-yl)methyl)-3-methylimidazolidine-2,4-dione]
number of NeuN-positive neurons ([1]; DIV 15, 10 μM at DIV 7 and DIV 11, APP/PS1-Nec1S vs APP/PS1-veh and WT groups): more neurons than the APP/PS1-veh group, and as many neurons as both WT groups | in vitro cell death of APP/PS1 primary cortical neurons ([1]; overall conclusion of the two independent experiments (NeuN and GFP), 10 μM): reduces the accelerated in vitro cell death of APP/PS1 primary cortical neurons | pMLKL level ([2]; DIV 11, all four groups, AAV-GFP experiment): not detectable | ratio pMLKL/MLKL ([2]; DIV 15, 10 μM, APP/PS1-veh group vs the other three groups incl. APP/PS1-Nec1S): statistically different compared to the other three groups
